Numbers after ± are expanded uncertainties.
Details: Liquid; Ebulliometric method (Recirculating still)

Row | Normal boiling temperature [°C] | SMILES
1 | 56.90 ± 0.2 | COC(C)=O [methyl ethanoate]
2 | 64.50 ± 0.2 | CO [methanol]
